Laboratory results as given in US8920775B2, “Loading technique for preparing radionuclide containing nanoparticles” (Technical University of Denmark, priority 2009, dated 2014).

How the values were obtained:
[1] = ITC: ligand exchange of Cu(II) between 2HQ and chelates (Examples III, Table 2)
Method: Isothermal titration calorimetry (ITC) measurements were used to obtain the equilibrium constant (K, also referred to as the exchange constant) of the ligand exchange between the ionophore and the agent-entrapping compound, here a chelator. […] The ligand exchange was monitored by the heat of reaction from each injection in the ITC experiment as determined by peak integration. The ligand exchange constant (K) was determined by fitting the heat of reaction. The binding isotherm is defined by the equilibrium: Cu(2HQ)2+chelate ? Cu(chelate)+2(2HQ) (1)
The ITC measurements were carried out at 25° C. and 50° C. using isothermal titration calorimetry (iTC200, Micro-Cal, GE). The instrument was electrically calibrated by means of a standard electric pulse as recommended by the manufacturer. A 40 μL syringe was used for the titration, mixing was effected by stirring the syringe at 1000 rpm during equilibration and experiments. Typically, 20 injections of 2 μL each were performed with a 150 s interval between injections in a single titration. The reference cell of the calorimeter filled with water acts as a thermal reference to the sample cell. […] All solutions were degassed before titrations to reduce noise.
The ligand exchange constant (K) and the ligand exchange enthalpy (ΔH) are determined by as fitting parameters using a binding isotherm based on reaction scheme (1).

[2] = ITC: extraction of Cu(II) from 2-hydroxyquinoline by DOTA (Examples I); assay type: binding; details: Milli-Q water pH 7.4, 25° C.
Method: Isothermal titration calorimetry (ITC) measurements are designed to obtain primarily the enthalpy of each complex formation and their stoichiometries. The heats of each reaction are determined by integration of the peaks observed. After the contribution from the heat of dilution of each injection is subtracted, the heat is plotted against the molar ratio of the measured components. The binding constant (Ka, interchangeably referred to as the ligand exchange constant, K), enthalpy of binding) (ΔH^0), and stoichiometry (n) of the formation of complex are determined by fitting the binding isotherm against the binding equation using an independent binding model.
The exchange of 2-hydroxyquinoline with DOTA are shown as heat spike plots (A) and integrated heat plots (B). Experimental conditions: 0.5 mM Cu(2-hydroxyquinoine)2 is titrated with 10-μL injections of 5 mM DOTA. All solutions were prepared in Milli-Q water at pH=7.4.

[3] = ITC: ligand exchange of 2HQ with DOTA complexed to Cu(II) (Examples II); assay type: binding
[4] = In vivo PET/CT biodistribution and blood concentration-time profile; parameters: species or system NMRI nude mice; details: i.v., mice, PET ROI on left ventricle
Method: Human colon adenocarcinoma (HT29) tumor cells (2×10^6 cells) were inoculated in the left and right flank of female NMRI (Naval Medical Research Institute) nude mice and allowed to grow 4 weeks in the mice to establish the malignant solid tumor. ^64Cu-liposomes for in vivo studies were prepared as described above and consisted of DSPC/CHOL/DSPE-PEG-2000 in the molar ratio 55:40:5 and contained the chelating agent (DOTA) in a concentration of 10 mM, and at a pH of 4.0 in the interior of the liposomes. […]
After i.v. administration of ^64Cu-liposome or ^64Cu-DOTA the animals were subject to micro-PET/CT imaging at different time points: 1, 4, 12 and 24 h. With PET imaging the amount of radioactivity specifically sequestered in a region of interest (ROI) on an image can be calculated allowing direct quantitative determinations based on differences in signal intensity. After PET- and CT images were reconstructed the images were fused with Inveon Software (Siemens), and PET data were analyzed by defining ROIs on selected tissues. PET values are expressed as mean Becquerel ml^−1 (Bq ml^−1), and ROIs were drawn manually over each organ of interest. […]
FIG. 11 is a time-activity curve (TAC) illustrating the blood concentration-time pro-file of ^64Cu-liposome and ^64Cu-DOTA. […] The total injected activity dose was measured by drawing one ROI around the animal 4 min post-injection. […]

Row | Compound | Ligand exchange constant (K), exchange of Cu(II) from 2HQ to chelate ([1]; pH 5.9 at 25° C.) | ligand exchange enthalpy (ΔH) ([1]; pH 5.9 at 25° C.) | Ligand exchange constant (K), exchange of Cu(II) from 2HQ to chelate ([1]; pH 5.9 at 50° C.) | ligand exchange enthalpy (ΔH) ([1]; pH 5.9 at 50° C.) [kcal/mol] | Ligand exchange constant (K), exchange of Cu(II) from 2HQ to chelate ([1]; pH 4.0 at 25° C.) | ligand exchange enthalpy (ΔH) ([1]; pH 4.0 at 25° C.) [kcal/mol] | Ligand exchange constant (K), exchange of Cu(II) from 2HQ to chelate ([1]; pH 4.0 at 50° C.) | ligand exchange enthalpy (ΔH) ([1]; pH 4.0 at 50° C.) [kcal/mol] | binding affinity to Cu(II) compared with 2-hydroxyquinoline [2] | exchange constant, K (Cu(2HQ)2 + DOTA) ([3]; acetate buffer at pH 4.0, 25° C.) | exchange constant, K (Cu(2HQ)2 + DOTA) ([3]; pH 5.9 in MES buffer, 25° C.) | blood clearance [4]
1 | C1CNCCNCCNCCN1 [Cyclen, 1,4,7,10-tetraazacyclododecane] | ^ | ^ | 1.4 × 10^−3 | -5.5 |  |  |  |  |  |  |  | 
2 | O=C(O)CN1CCN(CC(=O)O)CCN(CC(=O)O)CCN(CC(=O)O)CC1 [DOTA, 1,4,7,10-tetraazacyclododecane-1,4,7,10-tetraacetic acid] | 6.1 × 10^−4 | -8.0 kcal/mol | 1.0 × 10^−3 | -6.3 | 1.3 × 10^−2 | 3.8 | 8.7 × 10^−3 | 4.0 | much higher binding affinity to Cu(II) than 2-hydroxyquinoline | (1.0±0.3)·10^−2 | (5.2±1.6)·10^−4 | 
3 | O=P(O)(O)CN1CCN(CP(=O)(O)O)CCN(CP(=O)(O)O)CCN(CP(=O)(O)O)CC1 [DOTP, 1,4,7,10-tetraazacyclododecane-1,4,7,10-tetra(methanephosphonic acid)] |  |  |  |  | 2.5 × 10^−3 | 2.4 | 2.9 × 10^−3 | 3.4 |  |  |  | 
4 | O=C(O)CN1CCCN(CC(=O)O)CCN(CC(=O)O)CCCN(CC(=O)O)CC1 [TETA, 1,4,8,11-tetraazacyclotetradecane-1,4,8,11-tetraacetic acid] | 3.0 × 10^−3 | -4.9 kcal/mol | 2.8 × 10^−2 | -4.7 | 1.2 × 10^−4 | 0.5 |  |  |  |  |  | 
5 | O=C([O-])CN1CCN(CC(=O)[O-])CCN(CC(=O)O)CCN(CC(=O)O)CC1.[64Cu+2] [^64Cu-DOTA] |  |  |  |  |  |  |  |  |  |  |  | cleared rapidly after administration through renal filtration
